5 compounds from US4921953A, “Cephalosporin derivatives” (Taisho Pharmaceutical Co., Ltd., priority 1988, dated 1990) can be followed below.

≈ marks a conversion by molar mass, not a printed value. Where a name gives a salt, the structure may show the parent alone. Read-outs that look alike come from different tables or passages of the source. Where only a bound is given, the exact number is not on record here.

The subject of data set [1] is Entercococcus faecalis ATCC 8043. The experiment in a line: antibacterial activity, agar plate dilution method (MIC). Type of data set: cell-based. To be noted: read-out: Minimum Inhibitory Concentration (MIC). As to the method:
(§1) The antibacterial activity against various bacteria was measured by the agar plate dilution method (inoculum size: 10^6 cells/ml), and the results are shown in the following Table 1.

Data set [2] concerns Staphylococcus aureus K-1. The description is as above. Type of data set: cell-based. As to the method:
as §1

Data set [3] concerns Eschelichia coli NIHJ JC-2. The data set is described as above. To be noted: read-out: Minimum Inhibitory Concentration (MIC). Type of data set: cell-based. As to the method: as §1
The test system of data set [4] is Eschelichia coli A13. The description is as above. The class given is cell-based. Conditions: read-out: Minimum Inhibitory Concentration (MIC). As for the experimental part:
as §1

Data set [5] has as its system Staphylococcus epidermidis sp-al-1. The data set is described as above. The class given is cell-based. As for the experimental part: as §1
Data set [6] deals with Staphylococcus aureus 209P-JC. The data set is described as above. Conditions: read-out: Minimum Inhibitory Concentration (MIC). Type of data set: cell-based. As to the method: as §1
Data set [7] can be described thus: in vivo. More on the design: species or system male Japanese native strain white rabbits. Conditions: blood, rabbit, oral, 20 mg/kg suspended in 5% gum arabic, bioassay (Bacillus luteus S1101). As for the experimental part: Three male Japanese native strain white rabbits weighing 2.50 to 3.15 kg for each group were administered orally with the test compounds, and the change of the concentration of the compound in blood was measured.
Dosage of the test compound: 20 mg/kg (suspended in 5% gum arabic).
Quantitative method: Bioassy method (test bacterium: Bacillus luteus S1101).

Setting [8] is: Staphylococcus aureus, K1, read-out: Minimum Inhibitory Concentration (MIC).
[9] abbreviates: Staphylococcus epidermidis, SPAL1, read-out: Minimum Inhibitory Concentration (MIC).
The mark [10] stands for this setting: Entercococcus faecalis ATCC 8043, inoculum size: 10^6 cells/ml.
Setting [11] is: K1, Staphylococcus aureus K-1, inoculum size: 10^6 cells/ml, read-out: Minimum Inhibitory Concentration (MIC).
Where [12] appears, read: Eschelichia coli NIHJ JC-2, inoculum size: 10^6 cells/ml.
[13] abbreviates: Eschelichia coli A13, inoculum size: 10^6 cells/ml.
[14] abbreviates: SPAL1, Staphylococcus epidermidis sp-al-1, inoculum size: 10^6 cells/ml, read-out: Minimum Inhibitory Concentration (MIC).
[15] abbreviates: Staphylococcus aureus 209P-JC, inoculum size: 10^6 cells/ml.

On to `N#CCSC1=C(C(=O)[O-])N2C(=O)[C@@H](NC(=O)/C(=N\O)c3csc(N)n3)[C@H]2SC1.[Na+]`, for which the MIC in data set [1] turned out to be 1.56 µg/mL; in data set [2] (setting [8]), 0.78 µg/mL; in data set [3], 0.2 µg/mL; in data set [4], 1.56 µg/mL; in data set [5] (setting [9]), 0.78 µg/mL; in data set [6] (Staphylococcus aureus, 209P), 0.2 µg/mL. This compound also showed a concentration at 4 h in data set [7] (Four Hours after administration) of 2500 ng/mL. The same compound came in with a concentration at 1 h in data set [7] (One Hour after administration) of 2500 ng/mL. The compound also showed a concentration at 2 h in data set [7] (Two Hours after administration) of 4000 ng/mL.
Turning to `Nc1nc(/C(=N/O)C(=O)N[C@@H]2C(=O)N3C(C(=O)O)=C(SCCF)CS[C@H]23)cs1` [B], the MIC in data set [1] (setting [10]) was determined as 25 µg/mL (≈ 55.9 µM); in data set [2] (setting [11]), 0.78 µg/mL (≈ 1.74 µM); in data set [3] (setting [12]), 0.39 µg/mL (≈ 0.872 µM); in data set [4] (setting [13]) it was 6.25 µg/mL (≈ 14 µM); in data set [5] (setting [14]), 0.78 µg/mL (≈ 1.74 µM); in data set [6] (setting [15]) it was 0.39 µg/mL (≈ 0.872 µM).
In the case of `C=CCSC1=C(C(=O)O)N2C(=O)[C@@H](NC(=O)/C(=N\O)c3csc(N)n3)[C@H]2SC1` [C], the MIC in data set [1] was found to be 12.5 µg/mL (≈ 28.3 µM); in data set [2] (setting [8]) it was 6.25 µg/mL (≈ 14.2 µM); in data set [3] (setting [12]), 0.2 µg/mL (≈ 0.453 µM); in data set [4], 6.25 µg/mL (≈ 14.2 µM); in data set [5] (setting [14]), 0.39 µg/mL (≈ 0.883 µM); in data set [6] (setting [15]), 0.2 µg/mL (≈ 0.453 µM).
In the case of `CC1=C(C(=O)O)N2C(=O)[C@@H](NC(=O)[C@H](N)c3ccccc3)[C@H]2SC1` [D, Cephalexin, reference compound], the MIC in data set [1] is 100 µg/mL (≈ 288 µM); in data set [2] (setting [8]), greater than 100 µg/mL; in data set [3], 6.25 µg/mL (≈ 18 µM); in data set [4], greater than 100 µg/mL; in data set [5] (setting [9]) it was 1.56 µg/mL (≈ 4.49 µM); in data set [6] (Staphylococcus aureus, 209P), 0.78 µg/mL (≈ 2.25 µM).
For the compound `C=CC1=C(C(=O)O)N2C(=O)[C@@H](NC(=O)/C(=N\OCC(=O)O)c3csc(N)n3)[C@H]2SC1` [E, Cefixime sodium salt, reference compound], the MIC in data set [1] (setting [10]) is greater than 100 µg/mL; in data set [2] (setting [11]), greater than 100 µg/mL; in data set [3] it was 0.39 µg/mL; in data set [4] (setting [13]) it was greater than 100 µg/mL; in data set [5] (setting [14]), 50 µg/mL; in data set [6] (Staphylococcus aureus, 209P), 12.5 µg/mL.
